{
  "source": "paper PMC10376691",
  "about": "“Inhibition of Acetylcholinesterase and Amyloid-β Aggregation by Piceatannol and Analogs: Assessing In Vitro and In Vivo Impact on a Murine Model of Scopolamine-Induced Memory Impairment” (Antioxidants, 2023)",
  "molecules": {"B1": {"name": "lecanemab (antibody, chains of the INN, looked up, V domains shown)", "VH": "EVQLVESGGGLVQPGGSLRLSCSASGFTFSSFGMHWVRQAPGKGLEWVAYISSGSSTIYYGDTVKGRFTISRDNAKNSLFLQMSSLRAEDTAVYYCAREGGYYYGRSYYTMDYWGQGTTVTVSS", "VL": "DVVMTQSPLSLPVTPGAPASISCRSSQSIVHSNGNTYLEWYLQKPGQSPKLLIYKVSNRFSGVPDRFSGSGSGTDFTLRISRVEAEDVGIYYCFQGSHVPPTFGPGTKLEIK"}},
  "key": {"[1]": {"assay": "DPPH radical scavenging activity", "settings": "120 μM DPPH in methanol, 37 °C, 20 min", "procedure": "DPPH radical scavenging activity was assayed following a previous report, with some modifications. […] DMSO was used instead of a sample solution in the blank group. […] The scavenging activity of the DPPH radical (%) was calculated with the following equation: (△A515blank − △A515sample) ÷ △A515blank × 100%. The IC50 of the DPPH radical scavenging activity of PIC and its analogs or that of Trolox was calculated from each linear equation by three test concentrations and their radical scavenging activities."}, "recombinant human AChE": {"target": "T1, recombinant human AChE (Homo sapiens, UniProt P22303)", "T1 construct": "purchased R&D Systems Inc. (Minneapolis, MN, USA)", "T1 sequence (P22303 32-614)": "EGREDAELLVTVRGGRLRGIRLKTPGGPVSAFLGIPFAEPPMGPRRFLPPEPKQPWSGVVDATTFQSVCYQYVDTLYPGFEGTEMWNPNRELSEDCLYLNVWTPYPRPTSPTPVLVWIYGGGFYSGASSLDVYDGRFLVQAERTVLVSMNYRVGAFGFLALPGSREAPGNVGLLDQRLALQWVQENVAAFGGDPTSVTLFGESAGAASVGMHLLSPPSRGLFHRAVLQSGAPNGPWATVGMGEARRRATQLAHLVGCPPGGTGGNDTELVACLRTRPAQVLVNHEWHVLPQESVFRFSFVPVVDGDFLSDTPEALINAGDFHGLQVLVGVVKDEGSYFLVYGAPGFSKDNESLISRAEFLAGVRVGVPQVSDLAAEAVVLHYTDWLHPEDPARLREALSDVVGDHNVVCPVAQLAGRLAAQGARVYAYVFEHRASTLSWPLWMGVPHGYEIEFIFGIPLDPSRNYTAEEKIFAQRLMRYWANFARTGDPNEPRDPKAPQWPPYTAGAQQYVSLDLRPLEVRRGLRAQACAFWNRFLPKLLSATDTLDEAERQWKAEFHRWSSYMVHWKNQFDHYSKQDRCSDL", "assay": "AChE inhibitory activity in vitro (acetylthiocholine/DTNB)", "format": "biochemical", "settings": "calculated from 100, 200, 500 μM; read-out: IC50 of the anti-AChE activity", "procedure": "Commercially synthesized acetylthiocholine iodide was hydrolyzed using AChE to release thiocholine, which was coupled with DTNB to generate the yellowish 5-thio-2-nitrobenzoate for in vitro AChE activity assays. For the AChE inhibitory activity assay, each analog was dissolved in the DMSO, and final concentrations of 100, 200, and 500 μM were used for comparisons. An equal volume of DMSO instead of the sample solution was used in the blank group and expressed as 100% AChE activity. […] AChE inhibition (%) was calculated as follows: [(A405blank − A405sample)/(A405blank)] × 100%."}, "Aβ peptide (1–42)": {"target": "T2, Aβ peptide (1–42) (Homo sapiens, UniProt P05067)", "T2 construct": "The Aβ peptide (1–42) was synthesized and purchased from Kelowna International Scientific Inc; purchased Kelowna International Scientific Inc. (New Taipei, Taiwan); host or cells: chemical synthesis", "T2 sequence (P05067 672-713)": "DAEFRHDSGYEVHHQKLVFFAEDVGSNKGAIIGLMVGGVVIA", "assay": "biochemical", "settings": "10 μM Aβ working solution, ThT, 37 °C, 24 h; read-out: IC50 of the anti-Aβ peptide (1–42) aggregation", "procedure": "To prepare the 10 μM Aβ peptide working solution, commercial Aβ peptide was first weighted and dissolved in HFIP to 1 mM. Next, the solvent was evaporated in a hood and then re-dissolved using 100 μL of 60 mM NaOH. It was then diluted to 10 μM working solutions with 50 mM phosphate buffer (pH 7.4, containing 150 mM sodium chloride and 1 mM EDTA), following previous reports. […] DMSO instead of the sample solution was used as the control. The 50 mM phosphate buffer was used instead of the Aβ working solution as the sample blank. […] The IC50 of the inhibition against the Aβ aggregation of PIC and its analogs was calculated from each linear equation using three test concentrations and their inhibition capacities."}, "SH-SY5Y cells [2]": {"tested_on": "SH-SY5Y cells", "assay": "Neuroprotection against Aβ peptide (25–35)-induced cell deaths (MTT)", "format": "cell-based, human", "settings": "pre-treatment 1, 2 and 10 μM for 24 h, then 40 μg/mL Aβ (25–35) 24 h; vs control p < 0.05", "procedure": "The human SH-SY5Y neuroblastoma cell lines (CRL-2266, Lot No. 58979771) were purchased from American Type Culture Collection (Manassas, VA, USA) and used as models to investigate PIC and its analogs for neuroprotective activities against Aβ-induced cell deaths and the stimulation of neurite outgrowths. The SH-SY5Y cells were grown in DMEM/F-12 medium supplemented with 10% FBS at 37 °C under a humidified atmosphere and 5% CO2 [41]. […]. The SH-SY5Y cells (10,000 cells/well) were seeded and cultured in a DMEM/F-12 medium containing 10% FBS for 24 h at 37 °C under a humidified atmosphere and 5% CO2. […] The medium was then removed, and 40 μg/mL Aβ peptide (25–35) (dissolved in PBS) or an equal aliquot of PBS was added to the medium for another 24 h culture. The MTT was used to evaluate cell viability, and the absorbance at 570 nm was determined. The DMSO used instead of the sample solution was blank (recognized as 100%), and each treatment was expressed as relative cell viability (%). To study the stimulation of neurite outgrowth, the SH-SY5Y cells (5000 cells/well) were seeded on a 96-well plate pre-coated with poly-L-lysine and then cultured in the DMEM/F-12 medium containing 10% FBS overnight at 37 °C under a humidified atmosphere and 5% CO2. After being removed from the culture medium, each PIC, GNT, RHA, and isoRHA (at a final concentration of 10 μM in the 0.1%DMSO) or 0.1% DMSO (the control) was added to the DMEM/F-12 medium containing 10% FBS and refreshed every three days. On day 3 and day 6, each of the culture plates was photographed using an inverted microscope (ECLIPSE TS100, Nikon Instruments Inc., Tokyo, Japan). The culture medium was removed and washed with PBS, and the cultured cells in each well were fixed with 4% paraformaldehyde. To measure cell viability and quantify the neurite outgrowths of the treated SH-SY5Y in a 96-well plate, the neurite outgrowth staining kit (a two-color fluorescence assay kit) was used, following a previous report or the protocol in the manufacturer’s manual (publication number: MAN0007224), which included a cell membrane-stained fluorescent dye (orange-red fluorescence), a cell viability indicator (green fluorescence), and a reagent for background masking. The fluorescence ratios of Ex555nm/Em565nm and Ex495nm/Em515nm were determined for the neurite outgrowths and the cell viabilities, respectively. The value for the control was recognized as 100%, and each treatment was expressed relative to the control."}, "[3]": {"assay": "Neurite outgrowth and cell viability, two-color fluorescence assay kit", "format": "cell-based", "settings": "human, SH-SY5Y neuroblastoma cells, 3-day or 6-day treatment, green fluorescence, read-out: cell viability relative to the control", "procedure": "(§1) The SH-SY5Y cells were grown in DMEM/F-12 medium supplemented with 10% FBS at 37 °C under a humidified atmosphere and 5% CO2 [41]. […] The MTT was used to evaluate cell viability, and the absorbance at 570 nm was determined. The DMSO used instead of the sample solution was blank (recognized as 100%), and each treatment was expressed as relative cell viability (%). To study the stimulation of neurite outgrowth, the SH-SY5Y cells (5000 cells/well) were seeded on a 96-well plate pre-coated with poly-L-lysine and then cultured in the DMEM/F-12 medium containing 10% FBS overnight at 37 °C under a humidified atmosphere and 5% CO2. After being removed from the culture medium, each PIC, GNT, RHA, and isoRHA (at a final concentration of 10 μM in the 0.1%DMSO) or 0.1% DMSO (the control) was added to the DMEM/F-12 medium containing 10% FBS and refreshed every three days. On day 3 and day 6, each of the culture plates was photographed using an inverted microscope (ECLIPSE TS100, Nikon Instruments Inc., Tokyo, Japan). The culture medium was removed and washed with PBS, and the cultured cells in each well were fixed with 4% paraformaldehyde. To measure cell viability and quantify the neurite outgrowths of the treated SH-SY5Y in a 96-well plate, the neurite outgrowth staining kit (a two-color fluorescence assay kit) was used, following a previous report or the protocol in the manufacturer’s manual (publication number: MAN0007224), which included a cell membrane-stained fluorescent dye (orange-red fluorescence), a cell viability indicator (green fluorescence), and a reagent for background masking. […] The value for the control was recognized as 100%, and each treatment was expressed relative to the control."}, "SH-SY5Y cells [4]": {"tested_on": "SH-SY5Y cells", "assay": "Neurite outgrowth and cell viability, two-color fluorescence assay kit", "format": "cell-based", "settings": "10 μM", "procedure": "as §1"}, "[5]": {"settings": "read-out: Cmax of metabolite; after intravenous PIC 90 μmole/kg (21.98 mg/kg), SD rats; cited from earlier work"}, "[6]": {"tested_on": "scopolamine-induced mice with cognitive impairment", "settings": "one-month pre-treatment via cannula into the third ventricle, total 65 ng/month/head; cited from earlier work"}, "[7]": {"settings": "cited from earlier work"}, "[8]": {"tested_on": "scopolamine-induced amnesiac ICR mice", "settings": "pre-treatment 40 mg/kg; cited from earlier work"}, "early Alzheimer’s": {"tested_on": "early Alzheimer’s", "settings": "18-month phase-3 trial; cited from earlier work"}},
  "note": "“Also recorded” adds a separate entry of the source.",
  "data": [
    {"molecule": "COc1cc(C=Cc2cc(O)cc(O)c2)ccc1O", "note": "[isoRHA, 3,5,4′-trihydroxy-3′-methoxystilbene]", "values": [
      {"measurement": "IC50", "setting": "[1]", "result": 72.9, "unit": "µM"},
      {"measurement": "IC50", "setting": "recombinant human AChE", "result": 322, "unit": "µM"},
      {"measurement": "IC50", "setting": "Aβ peptide (1–42)", "result": 1940, "unit": "nM"},
      {"measurement": "neuroprotection: cell viability against Aβ peptide (25–35)-induced cell deaths", "setting": "SH-SY5Y cells [2]", "result": "elevated cell viabilities"},
      {"measurement": "viability at 10 µM", "setting": "[3]", "result": 80, "unit": "%"},
      {"measurement": "stimulation of neurite outgrowths", "setting": "SH-SY5Y cells [4]; 3-day or 6-day treatment, orange-red fluorescence, vs control", "result": "stimulate neurite outgrowths; also recorded: showed stimulated activities toward neurite outgrowths; also recorded: showed stimulatory activity in neurite outgrowths"},
      {"measurement": "total neurite lengths in living SH-SY5Y cells, fold of the control", "setting": "SH-SY5Y cells [4]; calculated", "result": 1.375, "unit": "fold"},
      {"measurement": "Cmax", "setting": "[5]", "result": "5.08 ± 0.31", "unit": "µM"}
    ]},
    {"molecule": "Oc1ccc([C@H]2c3c(O)cc(O)cc3[C@H]3c4c(cc(O)cc4[C@@H]2O)O[C@@H]3c2ccc(O)cc2)cc1", "note": "[ampelopsin A]", "values": [
      {"measurement": "learning behavior, passive avoidance test and novel object recognition", "setting": "[6]", "result": "clear restoration of learning behavior"}
    ]},
    {"molecule": "OC[C@H]1O[C@@H](Oc2cc(/C=C/c3cc(O)cc(O)c3)ccc2O)[C@H](O)[C@@H](O)[C@@H]1O", "note": "[piceatannol-3′-O-β-D-glucopyranoside]", "values": [
      {"measurement": "crossing of the BBB", "setting": "[7]", "result": "reported to cross the BBB"}
    ]},
    {"molecule": "Oc1ccc([C@H]2c3c(O)cc(O)cc3[C@H]3c4c(cc(O)cc4[C@@H]2c2cc(/C=C/c4cc(O)cc5c4[C@H](c4cc(O)cc(O)c4)[C@@H](c4ccc(O)cc4)O5)ccc2O)O[C@@H]3c2ccc(O)cc2)cc1", "note": "[vitisin A]", "values": [
      {"measurement": "learning and memory functions via the passive avoidance test", "setting": "[8]", "result": "improved learning and memory functions"}
    ]},
    {"molecule": "B1", "values": [
      {"measurement": "less decline in measures of cognition and function as compared to a placebo", "setting": "early Alzheimer’s", "result": 25, "unit": "%"}
    ]}
  ]
}
